Measured values: ChEMBL document CHEMBL3886502, “Pyrrolinone carboxamide compounds useful as endothelial lipase inhibitors” (2016)

Molecular target: T1, Endothelial lipase (Homo sapiens, UniProt Q9Y5X9)
T1 sequence (Q9Y5X9 whole entry): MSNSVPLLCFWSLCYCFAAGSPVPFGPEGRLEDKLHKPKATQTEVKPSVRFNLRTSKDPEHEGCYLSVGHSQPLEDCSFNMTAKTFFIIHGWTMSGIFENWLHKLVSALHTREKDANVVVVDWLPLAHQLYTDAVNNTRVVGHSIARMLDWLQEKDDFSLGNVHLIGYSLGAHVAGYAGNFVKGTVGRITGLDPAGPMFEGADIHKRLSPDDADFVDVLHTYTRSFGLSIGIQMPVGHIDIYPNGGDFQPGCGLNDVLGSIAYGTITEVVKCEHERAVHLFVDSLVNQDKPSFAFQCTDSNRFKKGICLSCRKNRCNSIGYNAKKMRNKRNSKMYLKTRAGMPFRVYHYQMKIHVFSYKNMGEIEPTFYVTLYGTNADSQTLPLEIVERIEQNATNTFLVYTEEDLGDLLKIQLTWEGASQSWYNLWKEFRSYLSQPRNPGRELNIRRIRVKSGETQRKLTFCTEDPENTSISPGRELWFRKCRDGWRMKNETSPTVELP
Test: Enzyme Assay: The enzymatic assay was measured using white, opaque 96-well half area plates. Each well contained 60 uL of assay buffer (50 mM HEPES pH 8.0, 50 mM NaCl and 1 mM CaCl2) and 2 ul of a DMSO solution containing compound of interest. Conditioned media obtained from HT-1080 cells, which were transformed by RAGE technology (Athersys) to overexpress endogenous EL, was added and the reaction was allowed to incubate for 20 min at 37° C. with gentle agitation. The reaction was started by the addition of 20 uL of a 1:4 dilution of vesicles. The final total reaction volume was 100 uL. The reaction rates were measured on a Gemini plate reader with an excitation wavelength of 488 nm and a emission of 530 nm. Readings were taken every 20 seconds for 10 min with agitation between each reading.
Type: cell-based

Structure (SMILES) | IC50
O=C(NCCCc1ccc(Cl)c(Cl)c1)C1=C(O)C(=O)N(Cc2ccccc2C(=O)O)C1 | 488 nM
CN1CC(C(=O)NCCCc2ccccc2C(F)(F)F)=C(O)C1=O | 436 nM
CC1C(C(=O)NCCCc2ccc(Cl)c(Cl)c2)=C(O)C(=O)N1CCc1ccc(F)cc1 (stereo not drawn) | 486 nM
